In this test the target is T1, MAGL (Homo sapiens, UniProt Q99685).
T1 sequence (Q99685 1-303): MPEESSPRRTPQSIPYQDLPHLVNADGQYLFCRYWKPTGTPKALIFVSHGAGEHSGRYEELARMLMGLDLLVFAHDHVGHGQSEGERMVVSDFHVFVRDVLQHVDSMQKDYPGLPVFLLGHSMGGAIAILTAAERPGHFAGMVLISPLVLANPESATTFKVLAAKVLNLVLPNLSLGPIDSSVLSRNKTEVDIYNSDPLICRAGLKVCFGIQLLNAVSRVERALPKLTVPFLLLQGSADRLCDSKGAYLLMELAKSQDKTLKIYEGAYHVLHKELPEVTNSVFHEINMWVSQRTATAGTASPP
As to the kind of experiment: 2-AG assay: MAGL inhibitory activity by hydrolysis of 2-arachidonoylglycerol to arachidonic acid, followed by mass spectrometry. In kind it is biochemical. The text has this:
Compounds of formula (I) were profiled for MAGL inhibitory activity by determining the enzymatic activity by following the hydrolysis of the natural substrate 2-arachidonoylglycerol (2-AG) resulting in arachidonic acid, which can be followed by mass spectrometry. This assay is hereinafter abbreviated “2-AG assay”.
Compounds of formula (I) were profiled for MAGL inhibitory activity by determining the enzymatic activity by following the hydrolysis of the natural substrate 2-arachidonoylglycerol (2-AG) resulting in arachidonic acid, which can be followed by mass spectrometry. This assay is hereinafter abbreviated “2-AG assay”. The 2-AG assay was carried out in 384 well polypropylene assay plates. Compound dilutions were made in 100% DMSO in a polypropylene plate in 3-fold dilution steps to give a final concentration range in the assay from 12.5 μM to […]. Compound dilutions were added to MAGL protein in assay buffer (50 mM TRIS, 1 mM EDTA, 0.01% (v/v) Tween-20, 2.5% (v/v) DMSO). After shaking, the plate was incubated for 15 min at RT. To start the reaction, 2-arachidonoylglycerol in assay buffer was added. The final concentrations in the assay was […] for MAGL protein and 8 μM 2-arachidonoylglyerol. After shaking and 30 min incubation at RT, the reaction was quenched by the addition of two assay volumes of acetonitrile containing 4 μM of d8-arachidonic acid. The amount of arachidonic acid formed was traced by an online SPE system (Agilent Rapidfire) coupled to a triple quadrupole mass spectrometer. A C18 SPE cartridge (Agilent G9205A) was used in an acetonitrile/water liquid setup. The mass spectrometer was operated in negative electrospray mode following the mass transitions 303.1→259.1 for arachidonic acid and 311.1→267.0 for d8-arachidonic acid. The activity of the compounds was calculated based on the ratio of intensities [arachidonic acid/d 8-arachidonic acid].

The mark [1] stands for this setting: 15 min preincubation, 30 min reaction at RT, 8 μM 2-arachidonoylglycerol.

In the case of `O=C1NC2(CO1)CN(C(=O)N1CC3(CC(Cc4ccc(C(F)(F)F)cc4F)C3)C1)C2` [Example 24, 2-[6-[2-fluoro-4-(trifluoromethyl)benzyl]-2-azaspiro[3.3]heptane-2-carbonyl]-7-oxa-2,5-diazaspiro[3.4]octan-6-one], the IC50 (unit nM) is < 5 nM.
Regarding `O=C1NCC2(CN(C(=O)N3CC4(CC(Cc5ccc(C(F)(F)F)cc5F)C4)C3)C2)N1` [Example 25, 2-[6-[2-fluoro-4-(trifluoromethyl)benzyl]-2-azaspiro[3.3]heptane-2-carbonyl]-2,5,7-triazaspiro[3.4]octan-6-one], under setting [1], it took 0.05 nM to reach half-maximal inhibition (IC50). In other words, the picomolar range.
On the same count and under the same terms, to `O=C1NC2(CO1)CN(C(=O)N1CC3(CC(Cc4ccc(OC(F)(F)F)cn4)C3)C1)C2` [Example 26, 2-[6-[[5-(trifluoromethoxy)-2-pyridyl]methyl]-2-azaspiro[3.3]heptane-2-carbonyl]-7-oxa-2,5-diazaspiro[3.4]octan-6-one] belongs 0.11 nM.
Still for that read-out and setting: to `CS(=O)(=O)c1cc(C(F)(F)F)ccc1CC1CC2(C1)CN(C(=O)N1CC3(COC(=O)N3)C1)C2` [Example 27, 2-[6-[2-mesy1-4-(trifluoromethyl)benzyl]-2-azaspiro[3.3]heptane-2-carbonyl]-7-oxa-2,5-diazaspiro[3.4]octan-6-one] belongs 0.14 nM; to `O=C1NC2(CO1)CN(C(=O)N1CC3(CC(Cc4ncc(C(F)(F)F)cc4F)C3)C1)C2` [Example 28, 2-[6-[[3-fluoro-5-(trifluoromethyl)-2-pyridyl]methyl]-2-azaspiro[3.3]heptane-2-carbonyl]-7-oxa-2,5-diazaspiro[3.4]octan-6-one], 0.23 nM; to `CS(=O)(=O)c1cc(CC2CC3(C2)CN(C(=O)N2CC4(COC(=O)N4)C2)C3)ccc1C(F)(F)F` [Example 29, 2-[6-[3-mesyl-4-(trifluoromethyl)benzyl]-2-azaspiro[3.3]heptane-2-carbonyl]-7-oxa-2,5-diazaspiro[3.4]octan-6-one], 0.34 nM.
With `CS(=O)(=O)c1cc(F)cc(CC2CC3(C2)CN(C(=O)N2CC4(COC(=O)N4)C2)C3)c1` [Example 30, 2-[6-(3-fluoro-5-mesyl-benzyl)-2-azaspiro[3.3]heptane-2-carbonyl]-7-oxa-2,5-diazaspiro[3.4]octan-6-one], under setting [1], the IC50 came out at 0.45 nM.
`O=C1NC2(CO1)CN(C(=O)N1CC3(CC(Cc4ccc(F)cn4)C3)C1)C2` [Example 31, 2-[6-[(5-fluoro-2-pyridyl)methyl]-2-azaspiro[3.3]heptane-2-carbonyl]-7-oxa-2,5-diazaspiro[3.4]octan-6-one] yielded an IC50 under setting [1] of 0.61 nM.
Regarding `O=C1NC2(CO1)CN(C(=O)N1CC3(CC(Cc4cnc(C(F)(F)F)nc4)C3)C1)C2` [Example 32, 2-[6-[[2-(trifluoromethyl)pyrimi-din-5-y1]methyl]-2-azaspiro[3.3]heptane-2-carbonyl]-7-oxa-2,5-diazaspiro[3.4]octan-6-one], the IC50 under setting [1] amounted to 0.67 nM.
Still for that read-out and setting: to `CS(=O)(=O)c1cccc(CC2CC3(C2)CN(C(=O)N2CC4(COC(=O)N4)C2)C3)c1` [Example 33, 2-[6-(3-mesylbenzyl)-2-azaspiro[3.3]heptane-2-carbonyl]-7-oxa-2,5-diazaspiro[3.4]octan-6-one] belongs 0.87 nM; to `O=C1NCC2(CN(C(=O)N3CC4(CC(Cc5ccc(F)cc5C(F)(F)F)C4)C3)C2)N1` [Example 34, 2-[6-[4-fluoro-2-(trifluoromethyl)benzyl]-2-azaspiro[3.3]heptane-2-carbonyl]-2,5,7-triazaspiro[3.4]octan-6-one], 1.09 nM; to `CS(=O)(=O)c1cc(C(F)(F)F)ccc1CC1CC2(C1)CN(C(=O)N1CC3(CCC(=O)N3)C1)C2` [Example 35, 2-[6-[2-mesyl-4-(trifluoromethyl)benzyl]-2-azaspiro[3.3]heptane-2-carbonyl]-2,5-diazaspiro[3.4]octan-6-one], 1.43 nM.
Still for that read-out and setting: to `O=C1NC2(CO1)CN(C(=O)N1CC3(CC(Cc4ccc(C(F)(F)F)nn4)C3)C1)C2` [Example 36, 2-[6-[[6-(trifluoromethyl)pyrida-zin-3-yl]methyl]-2-azaspiro[3.3]heptane-2-carbonyl]-7-oxa-2,5-diazaspiro[3.4]octan-6-one] belongs 1.43 nM.
Still for that read-out and setting: the result for `O=C1NC2(CO1)CN(C(=O)N1CC3(CC(Cc4cncc(F)c4)C3)C1)C2` [Example 37, 2-[6-[(5-fluoro-3-pyridyl)methyl]-2-azaspiro[3.3]heptane-2-carbonyl]-7-oxa-2,5-diazaspiro[3.4]octan-6-one] reads 1.91 nM; that for `O=C1NCC2(CN(C(=O)N3CC4(CC(Cc5ccc(F)cc5F)C4)C3)C2)N1` [Example 38, 2-[6-(2,4-difluorobenzyl)-2-azaspiro[3.3]heptane-2-carbonyl]-2,5,7-triazaspiro[3.4]octan-6-one], 2.34 nM.
With `CS(=O)(=O)c1ccc(CC2CC3(C2)CN(C(=O)N2CC4(CCC(=O)N4)C2)C3)cc1C(F)(F)F` [Example 39, 2-[6-[4-mesy1-3-(trifluoromethyl)benzyl]-2-azaspiro[3.3]heptane-2-carbonyl]-2,5-diazaspiro[3.4]octan-6-one], half-maximal inhibition under setting [1] (IC50) required 2.38 nM.
On the same count and under the same terms, to `CS(=O)(=O)c1cc(CC2CC3(C2)CN(C(=O)N2CC4(CCC(=O)N4)C2)C3)ccc1C(F)(F)F` [Example 40, 2-[6-[3-mesyl-4-(trifluoromethyl)benzyl]-2-azaspiro[3.3]heptane-2-carbonyl]-2,5-diazaspiro[3.4]octan-6-one] belongs 3.04 nM.
Same read-out and setting: to `CS(=O)(=O)c1cc(F)ccc1CC1CC2(C1)CN(C(=O)N1CC3(CCC(=O)N3)C1)C2` [Example 41, 2-[6-(4-fluoro-2-mesyl-benzyl)-2-azaspiro[3.3]heptane-2-carbonyl]-2,5-diazaspiro[3.4]octan-6-one] belongs 5.52 nM.
The compound `O=C1NCC2(CN(C(=O)N3CC4(CC(Cc5ccc(C(F)(F)F)nc5)C4)C3)C2)N1` [Example 42, 2-[6-[[6-(trifluoromethyl)-3-pyridyl]methyl]-2-azaspiro[3.3]heptane-2-carbonyl]-2,5,7-triazaspiro[3.4]octan-6-one] yielded an IC50 under setting [1] of 53.4 nM.
Same read-out and setting: to `O=C1NC2(CCO1)CN(C(=O)N1CC3(CC(Cc4cnc(C(F)(F)F)cn4)C3)C1)C2` [Example 43, 2-[6-[[5-(trifluoromethyl)pyrazin-2-yl]methyl]-2-azaspiro[3.3]heptane-2-carbonyl]-7-oxa-2,5-diazaspiro[3.5]nonan-6-one] belongs 646 nM; to `CS(=O)(=O)c1ccc(CC2CC3(C2)CN(C(=O)N2CC4(COC(=O)N4)C2)C3)cc1C(F)(F)F` [Example 44, 2-[6-[4-mesyl-3-(trifluoromethyl)benzyl]-2-azaspiro[3.3]heptane-2-carbonyl]-7-oxa-2,5-diazaspiro[3.4]octan-6-one], 0.32 nM; to `O=C1NCC2(CN(C(=O)N3CC4(CCC(Cc5ccc(C(F)(F)F)cn5)CC4)C3)C2)N1` [Example 45, 2-[7-[[5-(trifluoromethyl)-2-pyridyl]methyl]-2-azaspiro[3.5]nonane-2-carbonyl]-2,5,7-triazaspiro[3.4]octan-6-one], 26.3 nM.
Still for that read-out and setting: to `O=C1NC2(CO1)CN(C(=O)N1CC3(CCC(Cc4ccc(C(F)(F)F)cn4)C3)C1)C2` (stereo not drawn) [Example 46, 2-[6-[[5-(trifluoromethyl)-2-pyridyl]methyl]-2-azaspiro[3.4]octane-2-carbonyl]-7-oxa-2,5-diazaspiro[3.4]octan-6-one] belongs 0.15 nM.
On the same count and under the same terms, the result for `O=C1NC2(CO1)CN(C(=O)N1CC3(CCC(Oc4ccc(C(F)(F)F)nn4)CC3)C1)C2` [Example 47, 2-[7-[6-(trifluoromethyl)pyrida-zin-3-y1]oxy-2-azaspiro[3.5]nonane-2-carbonyl]-7-oxa-2,5-diazaspiro[3.4]octan-6-one] reads 2.94 nM; that for `O=C1NC2(CO1)CN(C(=O)N1CC3(CC(c4ccc(S(=O)(=O)C(F)(F)F)cc4)C3)C1)C2` [Example 48, 2-[6-(4-triflylphenyl)-2-azaspiro[3.3]heptane-2-carbonyl]-7-oxa-2,5-diazaspiro[3.4]octan-6-one], 0.15 nM.
Under setting [1], `O=C1NC2(CO1)CN(C(=O)N1CC3(CC(CNC4(C(F)(F)F)CC4)C3)C1)C2` [Example 49, 2-[6-[[[1-(trifluoromethyl)cyclopro-ropyl]amino]methyl]-2-azaspiro[3.3]heptane-2-carbonyl]-7-oxa-2,5-diazaspiro[3.4]octan-6-one] came in with an IC50 of 0.77 nM.
Turning to `O=C1NC2(CO1)CN(C(=O)N1CC3(CC(NS(=O)(=O)c4cccc(C(F)(F)F)c4)C3)C1)C2` [Example 50, N-[2-(6-keto-7-oxa-2,5-diazaspiro[3.4]octane-2-carbonyl)-2-azaspiro[3.3]heptan-6-yl]-3-(trifluoromethyl)benzene-sulfonamide], inhibition under setting [1] was half-maximal at 0.78 nM (IC50).

Usually IC50 stands for the concentration at which inhibition is half-maximal. The low end stands for inhibition by little substance, the high end for a need for much substance.

(Values after patent US20240383904A1, “HETEROCYCLIC COMPOUNDS” (Hoffmann-La Roche Inc., priority 2021, published 2024).)
